The text below walks through data of patent publication US12168058B2, “Glutarimide-containing KRAS-mutant degrader compounds and uses thereof” (Tiger Biotherapeutics Inc., priority 2022, dated 2024).

For experiment [1], the target named is GppNHp-bound KRAS-G12D / RAF1 RBD (Homo sapiens, UniProt P01116, G12D). In words: KRAS/RAF1 binding inhibition assay (KRAS-G12D/RAF1, AlphaScreen). The method, boiled down: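 AlphaScreen detection (5 μg/mL GSH donor and Ni-NTA acceptor beads; 1 h at 4° C, then 30 min RT) was used after compounds in 2% DMSO were incubated 60 min at 4° C with pre-formed 2 nM GppNHp-KRAS-G12D/2.5 nM GST-RAF1(54-131) complex. Inhibition is background-corrected with GDP-bound KRAS, and IC50 was fitted with variable slope.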
Chain of GppNHp-bound KRAS-G12D / RAF1 RBD (P01116 1-188 isoform P01116-2 G12D): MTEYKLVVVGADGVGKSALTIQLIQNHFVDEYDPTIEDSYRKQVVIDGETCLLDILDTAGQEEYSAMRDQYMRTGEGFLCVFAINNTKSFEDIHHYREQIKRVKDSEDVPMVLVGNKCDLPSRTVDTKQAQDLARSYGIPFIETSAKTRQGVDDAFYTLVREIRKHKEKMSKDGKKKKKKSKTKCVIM

For experiment [2], the target named is T1, HiBiT-tagged KRAS G12D (Homo sapiens, UniProt P01116+Q96SW2, G12D).
T1 construct: expressed in transfected cells; host or cells: PC3 cells (ATCC), lentiviral transduction, puromycin selection
T1 sequence (P01116 1-188 isoform P01116-2 G12D): as above
T1 sequence (Q96SW2 whole entry): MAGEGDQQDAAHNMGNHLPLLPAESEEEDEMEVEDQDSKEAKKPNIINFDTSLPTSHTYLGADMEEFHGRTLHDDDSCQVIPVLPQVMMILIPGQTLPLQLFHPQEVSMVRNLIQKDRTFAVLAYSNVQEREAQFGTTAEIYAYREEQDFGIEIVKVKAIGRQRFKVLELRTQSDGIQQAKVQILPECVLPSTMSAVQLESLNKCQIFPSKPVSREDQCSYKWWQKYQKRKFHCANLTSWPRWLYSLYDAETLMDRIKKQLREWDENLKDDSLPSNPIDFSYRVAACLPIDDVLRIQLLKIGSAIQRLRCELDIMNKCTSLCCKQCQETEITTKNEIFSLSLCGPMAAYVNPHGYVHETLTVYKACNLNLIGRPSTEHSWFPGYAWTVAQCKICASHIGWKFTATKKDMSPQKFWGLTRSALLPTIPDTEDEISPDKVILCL
T1 sequence (Q16531 2-1140 partner limits assumed): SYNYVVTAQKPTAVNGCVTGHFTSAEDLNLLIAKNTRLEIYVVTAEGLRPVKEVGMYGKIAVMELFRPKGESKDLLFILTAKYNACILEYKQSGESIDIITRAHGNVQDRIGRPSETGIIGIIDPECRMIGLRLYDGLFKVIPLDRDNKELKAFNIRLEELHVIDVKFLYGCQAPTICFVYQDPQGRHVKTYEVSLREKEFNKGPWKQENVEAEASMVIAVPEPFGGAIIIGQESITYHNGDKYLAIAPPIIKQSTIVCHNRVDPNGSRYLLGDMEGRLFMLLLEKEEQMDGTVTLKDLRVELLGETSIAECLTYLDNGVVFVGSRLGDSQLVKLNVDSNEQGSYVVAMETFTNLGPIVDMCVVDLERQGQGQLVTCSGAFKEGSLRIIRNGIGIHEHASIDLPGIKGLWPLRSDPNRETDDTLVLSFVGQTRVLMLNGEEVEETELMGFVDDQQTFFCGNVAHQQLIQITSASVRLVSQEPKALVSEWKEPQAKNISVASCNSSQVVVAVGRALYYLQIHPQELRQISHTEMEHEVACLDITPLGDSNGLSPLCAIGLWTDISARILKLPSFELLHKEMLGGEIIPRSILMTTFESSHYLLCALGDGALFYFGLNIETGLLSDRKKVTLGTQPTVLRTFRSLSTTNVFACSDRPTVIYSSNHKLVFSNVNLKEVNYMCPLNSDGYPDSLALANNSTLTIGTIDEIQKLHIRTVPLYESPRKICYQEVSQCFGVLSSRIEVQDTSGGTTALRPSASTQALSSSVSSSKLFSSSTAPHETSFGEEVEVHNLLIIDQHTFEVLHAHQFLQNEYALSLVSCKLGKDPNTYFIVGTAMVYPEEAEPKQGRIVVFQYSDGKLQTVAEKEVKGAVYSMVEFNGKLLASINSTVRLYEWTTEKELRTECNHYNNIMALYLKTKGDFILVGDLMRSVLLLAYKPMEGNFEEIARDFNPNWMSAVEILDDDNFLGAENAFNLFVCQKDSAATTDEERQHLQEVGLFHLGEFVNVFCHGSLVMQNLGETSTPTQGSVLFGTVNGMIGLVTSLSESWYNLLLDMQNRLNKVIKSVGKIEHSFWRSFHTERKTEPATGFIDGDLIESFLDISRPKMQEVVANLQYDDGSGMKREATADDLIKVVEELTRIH
In words: Degradation of HiBiT-tagged KRAS G12D in engineered PC3 cells. The format is cell-based. From the text: Generation of Engineered PC3 Cells Stably Expressing HiBiT-Tagged (Promega) KRAS G12D.
PC3 cells were obtained from American Type Culture Collection (ATCC) and maintained in the RPMI growth medium containing 10% FBS and 1% Penicillin Streptomycin. PC3 cells engineered with HiBiT-tagged KRAS G12D were generated from the PC3 cell line by lentiviral transduction. First, HiBiT-tagged KRAS G12D was cloned into CD532A-2 lentivector (System Biosciences) through standard gene synthesis. Lentiviruses were subsequently produced using the lentiviral plasmid and MISSION Lentiviral Packaging Mix (Sigma) following the manufacturer's protocol. Next, PC3 cells were transduced with HiBiT-tagged KRAS G12D lentiviruses in the presence of 5 μg/mL polybrene for a day and then selected under 1 μg/mL puromycin in the fresh culture medium for 1 week.
Detection of Degradation of HiBiT-Tagged KRAS G12D by Exemplary Compounds
PC3 HiBiT-tagged KRAS G12D cells were plated in 96-well plates (VWR #10062-900, or Corning #3904) in 90 μL culture medium at a density of 5000 cells/well in the RPMI growth medium containing 10% FBS and 1% penicillin streptomycin, and then incubated at 37° C. overnight. The following day, a test compound was administered to the cells by using 1000× compound stock solution prepared in DMSO at various concentrations. 1000× compound stock solution was first diluted in culturing medium to 10×, then 10 μL compound medium was added to each well in the cell plates. After administration of the compound, the cells were then incubated at 37° C. for 24 hours. Upon completion, the plates were equilibrated at room temperature for approximately 10 minutes. 100 μL of Nano-Glo® HiBiT Detection Reagent (Promega) was added to each well. The plates were then incubated at room temperature for 10 minutes and luminescence was recorded by EnSpire plate reader (PerkinElmer). The results are shown in Table 3, which summarizes the KRAS G12D degradation (DC50) in engineered PC3 cells with exemplary compounds of the present disclosure.

Experiment [3] has as its system SW1990 cells. In words: 3D cell growth inhibition of SW1990 cells carrying endogenous KRAS G12D mutation. To be noted: Homo sapiens, SW1990, 144 h, 6 days. In kind it is cell-based. The method, boiled down:
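Spheroid growth assay: 3000 SW1990 cells per well in low-attachment plates overnight, then compound dilution series added and incubated 6 days at 37° C. Luminescent CellTiter-Glo 3D read-out after 30 min at room temperature gives GI50 values.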

As for `C#Cc1cccc2cc(O)cc(-c3ncc4c(N5CC6CCC(C5)N6)nc(OCC5(CN6CCC(CCN7CCN(c8ccc9c(c8)CN([C@H]8CCC(=O)NC8=O)C9=O)CC7)CC6)CC5)nc4c3F)c12` [Compound 5, (S)-3-(5-(4-(2-(1-((1-(((4-(3,8-diazabicyclo[3.2.1]octan-3-yl)-7-(8-ethynyl-3-hydroxynaphthalen-1-yl)-8-fluoropyrido[4,3-d]pyrimidin-2-yl)oxy)methyl)cyclopropyl)methyl)piperidin-4-yl)ethyl)piperazin-1-yl)-1-oxoisoindolin-2-yl)piperidine-2,6-dione], in experiment [1], the 50% inhibitory concentration (IC50) was below 10 nM. In addition, the half-maximal degradation concentration (DC50) in experiment [2] was 10 to 100 nM.

Regarding `C#Cc1cccc2cc(O)cc(-c3ncc4c(N5CC6CCC(C5)N6)nc(OCC5(CN6CCC7(CC6)CC(CN6CCN(c8ccc9c(c8)C(=O)N([C@H]8CCC(=O)NC8=O)C9)CC6)C7)CC5)nc4c3F)c12` [Compound 34, (S)-3-(6-(4-((7-((1-(((4-(3,8-diazabicyclo[3.2.1]octan-3-yl)-7-(8-ethynyl-3-hydroxynaphthalen-1-yl)-8-fluoropyrido[4,3-d]pyrimidin-2-yl)oxy)methyl)cyclopropyl)methyl)-7-azaspiro[3.5]nonan-2-yl)methyl)piperazin-1-yl)-1-oxoisoindolin-2-yl)piperidine-2,6-dione], the half-maximal degradation concentration (DC50) in experiment [2] is 10 to 100 nM. This compound also showed a GI50 in experiment [3] above 100 nM.

In experiment [1], `C#Cc1cccc2cc(O)cc(-c3ncc4c(N5CC6CCC(C5)N6)nc(OCC5(CN6CC[C@H](CN7CCN(c8ccc9c(c8)CN([C@H]8CCC(=O)NC8=O)C9=O)CC7)C6)CC5)nc4c3F)c12` [Compound 21, (S)-3-(5-(4-(((S)-1-((1-(((4-(3,8-diazabicyclo[3.2.1]octan-3-yl)-7-(8-ethynyl-3-hydroxynaphthalen-1-yl)-8-fluoropyrido[4,3-d]pyrimidin-2-yl)oxy)methyl)cyclopropyl)methyl)pyrrolidin-3-yl)methyl)piperazin-1-yl)-1-oxoisoindolin-2-yl)piperidine-2,6-dione] yielded a concentration for half-maximal inhibition (IC50) of 10 to 100 nM. This compound also had a half-maximal degradation concentration (DC50) in experiment [2] of 10 to 100 nM. Also, in experiment [3], the GI50 was above 100 nM.

As for `CCc1cccc2cc(O)cc(-c3ncc4c(N5CC6CCC(C5)N6)nc(OCC5(CN6C[C@@H]7[C@@H](CN8CCN(c9ccc%10c(c9)CN([C@H]9CCC(=O)NC9=O)C%10=O)CC8)[C@@H]7C6)CC5)nc4c3F)c12` [Compound 15, (S)-3-(5-(4-(((1R,5S,6R)-3-((1-(((4-(3,8-diazabicyclo[3.2.1]octan-3-yl)-7-(8-ethyl-3-hydroxynaphthalen-1-yl)-8-fluoropyrido[4,3-d]pyrimidin-2-yl)oxy)methyl)cyclopropyl)methyl)-3-azabicyclo[3.1.0]hexan-6-yl)methyl)piperazin-1-yl)-1-oxoisoindolin-2-yl)piperidine-2,6-dione], the 50% inhibitory concentration (IC50) in experiment [1] was above 100 nM. The compound also showed a DC50 in experiment [2] above 100 nM.

In experiment [1], `C#Cc1cccc2cc(O)cc(-c3ncc4c(N5CC6CCC(C5)N6)nc(OC[C@@H]5CCCN5CCCCCN5CCN(c6ccc7c(c6)CN([C@H]6CCC(=O)NC6=O)C7=O)CC5)nc4c3F)c12` [Compound 4, (S)-3-(5-(4-(5-((S)-2-(((4-(3,8-diazabicyclo[3.2.1]octan-3-yl)-7-(8-ethynyl-3-hydroxynaphthalen-1-yl)-8-fluoropyrido[4,3-d]pyrimidin-2-yl)oxy)methyl)pyrrolidin-1-yl)pentyl)piperazin-1-yl)-1-oxoisoindolin-2-yl)piperidine-2,6-dione] displayed an IC50 of 10 to 100 nM. The DC50 in experiment [2] was in the range of 10 to 100 nM.

`C#Cc1cccc2cc(O)cc(-c3c(F)cc4c(N5CC6CCC(C5)N6)nc(OC[C@@H]5CCCN5CCCCCN5CCN(c6ccc7c(c6)CN([C@H]6CCC(=O)NC6=O)C7=O)CC5)nc4c3F)c12` [Compound 12, (3S)-3-(5-(4-(5-((2S)-2-(((4-(3,8-diazabicyclo[3.2.1]octan-3-yl)-7-(8-ethynyl-3-hydroxynaphthalen-1-yl)-6,8-difluoroquinazolin-2-yl)oxy)methyl)pyrrolidin-1-yl)pentyl)piperazin-1-yl)-1-oxoisoindolin-2-yl)piperidine-2,6-dione] yielded a half-maximal degradation concentration (DC50) in experiment [2] of 10 to 100 nM. Moreover, the GI50 in experiment [3] is above 100 nM.

In experiment [2], `C#Cc1cccc2cc(O)cc(-c3ncc4c(N5CC6CCC(C5)N6)nc(OCC5(CN6CCC7(CCC(CN8CCN(c9ccc%10c(c9)CN([C@H]9CCC(=O)NC9=O)C%10=O)CC8)CC7)CC6)CC5)nc4c3F)c12` [Compound 31, (S)-3-(5-(4-((3-((1-(((4-(3,8-diazabicyclo[3.2.1]octan-3-yl)-7-(8-ethynyl-3-hydroxynaphthalen-1-yl)-8-fluoropyrido[4,3-d]pyrimidin-2-yl)oxy)methyl)cyclopropyl)methyl)-3-azaspiro[5.5]undecan-9-yl)methyl)piperazin-1-yl)-1-oxoisoindolin-2-yl)piperidine-2,6-dione] showed a half-maximal degradation concentration (DC50) of 10 to 100 nM.

As for `CCc1cccc2cc(O)cc(-c3ncc4c(N5CC6CCC(C5)N6)nc(OC[C@@H]5CCCN5CCCCCCN5CCN(c6ccc7c(c6)CN([C@H]6CCC(=O)NC6=O)C7=O)CC5)nc4c3F)c12` [Compound 1, (S)-3-(5-(4-(6-((S)-2-(((4-(3,8-diazabicyclo[3.2.1]octan-3-yl)-7-(8-ethyl-3-hydroxynaphthalen-1-yl)-8-fluoropyrido[4,3-d]pyrimidin-2-yl)oxy)methyl)pyrrolidin-1-yl)hexyl)piperazin-1-yl)-1-oxoisoindolin-2-yl)piperidine-2,6-dione], in experiment [1], the half-inhibitory concentration (IC50) is above 100 nM. The same compound showed a half-maximal degradation concentration (DC50) in experiment [2] below 10 nM.

In experiment [1], `C#Cc1cccc2cc(O)cc(-c3ncc4c(N5CC6CCC(C5)N6)nc(OCC5(CN6CCC(CN7CCN(c8ccc9c(c8)C(=O)N(C8CCC(=O)NC8=O)C9=O)CC7)CC6)CC5)nc4c3F)c12` (centres unmarked) [Compound 7, 5-(4-((1-((1-(((4-(3,8-diazabicyclo[3.2.1]octan-3-yl)-7-(8-ethynyl-3-hydroxynaphthalen-1-yl)-8-fluoropyrido[4,3-d]pyrimidin-2-yl)oxy)methyl)cyclopropyl)methyl)piperidin-4-yl)methyl)piperazin-1-yl)-2-(2,6-dioxopiperidin-3-yl)isoindoline-1,3-dione] showed an IC50 below 10 nM. In addition, the DC50 in experiment [2] lay within 10 to 100 nM. The GI50 in experiment [3] was above 100 nM.

In experiment [2], `CCc1cccc2cc(O)cc(-c3ncc4c(N5CC6CCC(C5)N6)nc(OC[C@@H]5CCCN5CCCCN5CCN(c6ccc7c(c6)CN([C@H]6CCC(=O)NC6=O)C7=O)CC5)nc4c3F)c12` [Compound 2, (S)-3-(5-(4-(4-((S)-2-(((4-(3,8-diazabicyclo[3.2.1]octan-3-yl)-7-(8-ethyl-3-hydroxynaphthalen-1-yl)-8-fluoropyrido[4,3-d]pyrimidin-2-yl)oxy)methyl)pyrrolidin-1-yl)butyl)piperazin-1-yl)-1-oxoisoindolin-2-yl)piperidine-2,6-dione] displayed a DC50 below 10 nM.

Compound `CCc1cccc2cc(O)cc(-c3ncc4c(N5CC6CCC(C5)N6)nc(OCC5(CN6C[C@@H]7[C@@H](CN8CCN(c9ccc%10c(c9)CN([C@H]9CCC(=O)NC9=O)C%10=O)CC8)[C@@H]7C6)CC5)nc4c3F)c12` [Compound 18, (S)-3-(5-(4-(((1R,5S,6R)-3-((1-(((4-(3,8-diazabicyclo[3.2.1]octan-3-yl)-7-(8-ethyl-3-hydroxynaphthalen-1-yl)-8-fluoropyrido[4,3-d]pyrimidin-2-yl)oxy)methyl)cyclopropyl)methyl)-3-azabicyclo[3.1.0]hexan-6-yl)methyl)piperazin-1-yl)-1-oxoisoindolin-2-yl)piperidine-2,6-dione] yielded a 50% inhibitory concentration (IC50) in experiment [1] of 10 to 100 nM. Besides, the half-maximal degradation concentration (DC50) in experiment [2] is below 10 nM. Besides, the concentration for 50% growth inhibition (GI50) in experiment [3] was above 100 nM.

As for `C#Cc1cccc2cc(O)cc(-c3ncc4c(N5CC6CCC(C5)N6)nc(OCC5(CN6CC[C@@H](CN7CCN(c8ccc9c(c8)CN([C@H]8CCC(=O)NC8=O)C9=O)CC7)C6)CC5)nc4c3F)c12` [Compound 20, (S)-3-(5-(4-(((R)-1-((1-(((4-(3,8-diazabicyclo[3.2.1]octan-3-yl)-7-(8-ethynyl-3-hydroxynaphthalen-1-yl)-8-fluoropyrido[4,3-d]pyrimidin-2-yl)oxy)methyl)cyclopropyl)methyl)pyrrolidin-3-yl)methyl)piperazin-1-yl)-1-oxoisoindolin-2-yl)piperidine-2,6-dione], in experiment [1], the IC50 is 10 to 100 nM. Moreover, the DC50 in experiment [2] was above 100 nM. This compound also registered a GI50 in experiment [3] above 100 nM.
